Results as given in patent US20070032556A1, “Aromatic polyamine derivative” (priority 2003, published 2007).
Like-named read-outs stand apart in the source and are kept apart here.

Experiment: solubility of the monomers or polymer in the coating solvent
Format: physicochemical
Procedure: In 100 g of mesitylene were dissolved 2.48 g (8 mmol) of 1,3,5-adamantanetricarboxylic acid trimethyl ester prepared in Synthesis Example 1 and 6.42 g (12 mmol) of 3,3′-diaminobenzidinetetracyclohexanoimine[N,N′,N″,N′″-tetracyclohexylidene-3,4,3′,4′-biphenyltetramine] prepared in Example 5 at room temperature in a nitrogen atmosphere and thereby yielded a coating composition having a monomer concentration of 8.2 percent by weight. The coating composition was passed through a filter with a pore size of 0.1 micron and was applied to an 8-inch silicon wafer by spin coating. This was heated at 300° C. in a nitrogen atmosphere for thirty minutes, was further heated at 400° C. for thirty minutes, and thereby yielded a film. The infrared absorption spectrum of the resulting polymer film was determined to find that the target crosslinked polybenzimidazole film was formed as shown in the infrared absorption spectral data in FIG. 1. The film has a film thickness of 300 nm.
The procedure of Example 15 was repeated, except for using the same amounts as in Example 15 of 1,3,5-adamantanetricarboxylic acid and 3,3′-diaminobenzidine instead of 1,3,5-adamantanetricarboxylic acid trimethyl ester and N,N′,N″,N′″-tetracyclohexylidene-3,4,3′,4′-biphenyltetramine, respectively, to find the solubility in the solvent (mesitylene) was low. Consequently, a coating composition having a monomer concentration of 1.2 percent by weight was prepared by the procedure of Example 15, except for using 0.54 g (2 mmol) of 1,3,5-adamantanetricarboxylic acid and 0.64 g (3 mmol) of 3,3′-diaminobenzidine. By using this coating composition, a polymer film was prepared by the procedure of […], and the infrared absorption spectrum of the polymer film was determined to find that the target crosslinked polybenzimidazole film was formed. The film has a film thickness of less than 20 nm.
A coating composition having a monomer concentration of 14.7 percent by weight was prepared by dissolving 4.42 g (12 mmol) of 1,3,5,7-adamantanetetracarboxylic acid tetramethyl ester and 12.83 g (24 mmol) of 3,3′-diaminobenzidinetetracyclohexanoimine[N,N′,N″,N′″-tetracyclohexylidene-3,4,3′,4′-biphenyltetramine] prepared according to Example 5 in 100 g of methyl isobutyl ketone (MIBK) at room temperature in a nitrogen atmosphere. The coating composition was passed through a filter with a pore size of 0.1 micron and was applied to an 8-inch silicon wafer by spin coating. This was heated at 300° C. in a nitrogen atmosphere for thirty minutes and further heated at 400° C. for thirty minutes to yield a film. The infrared absorption spectrum of the resulting polymer film was determined to find that the target crosslinked polybenzimidazole film was formed. The film has a film thickness of 400 nm.
The procedure of Example 16 was repeated, except for using the same amounts as in Example 16 of 1,3,5,7-adamantanetetracarboxylic acid and 3,3′-diaminobenzidine instead of 1,3,5,7-adamantanetetracarboxylic acid tetramethyl ester and N,N′,N″,N′″-tetracyclohexylidene-3,4,3′,4′-biphenyltetramine, respectively, to find that the solubility in the solvent (methyl isobutyl ketone: MIBK) was low. Consequently, a coating composition having a monomer concentration of 1.5 percent by weight was prepared by the procedure of Example 16, except for using 0.62 g (2 mmol) of 1,3,5,7-adamantanetetracarboxylic acid and 0.86 g (4 mmol) of 3,3′-diaminobenzidine. By using this coating composition, a polymer film was prepared by the procedure of Example 16, and the infrared absorption spectrum of the film was determined to find that the target crosslinked polybenzimidazole film was formed. The film has a film thickness of less than 20 nm. […]

O=C(O)C12CC3CC(C(=O)O)(C1)CC(C(=O)O)(C3)C2 [1,3,5-adamantanetricarboxylic acid]
solubility in the solvent (mesitylene): low

Nc1ccc(-c2ccc(N)c(O)c2)cc1O [3,3′-dihydroxybenzidine]
solubility in the solvent (propylene glycol monomethyl ether: PGME) (same amounts as in Example 19 in 100 g PGME, room temperature, nitrogen atmosphere, together with 1,3,5-adamantanetricarboxylic acid): low

Nc1ccc(-c2ccc(N)c(N)c2)cc1N [3,3′-diaminobenzidine]
solubility in the solvent (mesitylene) (same amounts as in Example 15 in 100 g mesitylene, room temperature, nitrogen atmosphere, acid and amine monomer dissolved together): low | solubility in the solvent (methyl isobutyl ketone: MIBK) (same amounts as in Example 16 in 100 g MIBK, room temperature, nitrogen atmosphere, acid and amine monomer dissolved together): low | solubility in the solvent (dioxane) (same amounts as in Example 17 in 100 g dioxane, room temperature, nitrogen atmosphere, together with 1,3,5-adamantanetricarboxylic acid): low

O=C(O)C12CC3(C(=O)O)CC(C(=O)O)(C1)CC(C(=O)O)(C2)C3 [1,3,5,7-adamantanetetracarboxylic acid]
solubility in the solvent (methyl isobutyl ketone: MIBK): low
